The values that follow come from ChEMBL document CHEMBL1201862, “PubChem BioAssay data set” (2004).

Among the test systems are SF-268; Malme-3M; ACHN; RXF 393; MDA-MB-231; HCT-15; COLO 205; UACC-62; NCI-H23; LOX IMVI; SNB-75; MDA-MB-435; SK-MEL-2; K562; SNB-19; OVCAR-3; OVCAR-4; HL-60; NCI-H226; SW-620.
What all share (test): NCI anticancer screen, dose series, 48 h

Structures are written as SMILES.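 Compound exposure: 48 hours, 5 concentrations, 96-well plates. Here, GI50 denotes the concentration required for 50% inhibition of growth.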 Active and inactive are the calls of the source. Cut-off read from the data, not from the text of the source: active = GI50 up to about 1.1 µM and inactive = higher.

`CCCCCCCCCCOC1C(C(C)OCCCN(C)C)OC2OC3(CCCCC3)OC21` (centres undefined): the GI50 with SF-268 was 15.3 µM (inactive); in the assay with Malme-3M it was 15.2 µM (inactive); in the assay on ACHN, 17.1 µM (inactive); in the assay with RXF 393, 14.9 µM (inactive); with MDA-MB-231, 15.3 µM (inactive); with HCT-15, 1.36 µM. For the same compound, the GI50 with COLO 205 is 3.48 µM (inactive); in the assay with UACC-62 it was 13.3 µM (inactive); in the assay with NCI-H23 it was 10.2 µM (inactive); with LOX IMVI it was 1.93 µM (inactive); with SNB-75, 5.48 µM (inactive); in the assay on MDA-MB-435 it was 16.2 µM (inactive). Besides, the GI50 in the assay on SK-MEL-2 was 15.8 µM (inactive); with K562, 3.47 µM (inactive); in the assay on SNB-19 it was 12.4 µM (inactive); in the assay on OVCAR-3, 14.7 µM (inactive); in the assay on OVCAR-4, 13.6 µM (inactive); in the assay on HL-60 it was 6.37 µM (inactive). The GI50 in the assay with NCI-H226 was 17.2 µM (inactive); in the assay with SW-620, 12.7 µM (inactive).

Turning to `Cc1nc(C(N)=S)sc1C(=O)C/C(=N/N)C(=O)Nc1cccc(Cl)c1C`, the GI50 in the assay with SF-268 was > 100 µM (inactive); in the assay on Malme-3M, > 100 µM (inactive); in the assay with ACHN it was > 100 µM (inactive); with RXF 393, > 100 µM (inactive); in the assay with MDA-MB-231 it was > 100 µM (inactive); in the assay on HCT-15, over 100 µM. The GI50 with UACC-62, with NCI-H23, in the assay on LOX IMVI, with SNB-75, in the assay on MDA-MB-435 and in the assay with SK-MEL-2 was > 100 µM (inactive) in each case. The GI50 in the assay with K562, in the assay with SNB-19, in the assay on OVCAR-3, with OVCAR-4, in the assay on HL-60 and in the assay on NCI-H226 was > 100 µM (inactive) in each case. The GI50 with SW-620 is > 100 µM (inactive).

As to `COc1ccc(Nc2nc3ccc(C(F)(F)F)cc3nc2C(=O)O)cc1OC`, the GI50 was 34.1 µM (inactive) with SF-268; 31.7 µM (inactive) in the assay with Malme-3M; 35.2 µM (inactive) in the assay with ACHN; 29.6 µM (inactive) in the assay with RXF 393; 37.9 µM (inactive) in the assay with MDA-MB-231; 25.9 µM in the assay on HCT-15. Also, the GI50 is 43 µM (inactive) in the assay with COLO 205; 21.7 µM (inactive) in the assay with UACC-62; 24.4 µM (inactive) with NCI-H23; 28.8 µM (inactive) in the assay on LOX IMVI; 35.8 µM (inactive) with SNB-75; 32.7 µM (inactive) in the assay with MDA-MB-435. Also, the GI50 is 17.2 µM (inactive) in the assay on SK-MEL-2; 29 µM (inactive) in the assay with K562; 23.6 µM (inactive) in the assay on SNB-19; 17.9 µM (inactive) with OVCAR-3; 40.6 µM (inactive) with OVCAR-4; 29.9 µM (inactive) in the assay on HL-60. Further, the GI50 with NCI-H226 is 36.7 µM (inactive); in the assay with SW-620, 29.2 µM (inactive).

Regarding `COc1ccc(-c2c3c(n(C4OC(CO)C(O)C(O)C4O)c(=S)c2C#N)CCCC3)cc1` (centres undefined), the GI50 in the assay with Malme-3M is > 100 µM (inactive); in the assay with ACHN, > 100 µM (inactive); in the assay with RXF 393, > 100 µM (inactive); in the assay with MDA-MB-231, > 100 µM (inactive); in the assay with HCT-15, over 100 µM; in the assay on COLO 205, > 100 µM (inactive). In addition, the GI50 was > 100 µM (inactive) in the assay on UACC-62; > 100 µM (inactive) with NCI-H23; > 100 µM (inactive) with LOX IMVI; 0.355 µM (active) in the assay with SNB-75; > 100 µM (inactive) in the assay with MDA-MB-435; > 100 µM (inactive) with SK-MEL-2. Moreover, the GI50 with OVCAR-3 is > 100 µM (inactive); in the assay with OVCAR-4 it was > 100 µM (inactive); in the assay on HL-60 it was 72.9 µM (inactive); in the assay on NCI-H226, > 100 µM (inactive); in the assay on SW-620, > 100 µM (inactive).

As to `CC(=O)N(CN1C(=O)CCC1C(=O)O)c1ccccc1Cl` (centres undefined), the GI50 with SF-268 was > 100 µM (inactive); in the assay with Malme-3M it was > 100 µM (inactive); with ACHN, > 100 µM (inactive); with RXF 393 it was > 100 µM (inactive); in the assay with MDA-MB-231, > 100 µM (inactive); with HCT-15 it was over 100 µM. Besides, the GI50 with COLO 205, with UACC-62, in the assay on NCI-H23, in the assay with LOX IMVI, in the assay with SNB-75 and with MDA-MB-435 was > 100 µM (inactive) in each case. In addition, the GI50 in the assay on SK-MEL-2, with K562, with SNB-19, with OVCAR-3, with OVCAR-4 and with HL-60 was > 100 µM (inactive) throughout. Further, the GI50 with NCI-H226 and with SW-620 was > 100 µM (inactive) in each case.

As for `Nc1nc(SCC(=O)O)nc(O)c1N`, the GI50 in the assay with SF-268 was > 100 µM (inactive); in the assay on Malme-3M, > 100 µM (inactive); in the assay on ACHN, > 100 µM (inactive); in the assay on RXF 393, > 100 µM (inactive); in the assay with MDA-MB-231, > 100 µM (inactive); in the assay with HCT-15, over 100 µM. In addition, the GI50 was > 100 µM (inactive) with COLO 205; > 100 µM (inactive) in the assay on UACC-62; > 100 µM (inactive) in the assay on NCI-H23; 20.9 µM (inactive) in the assay on LOX IMVI; 50.2 µM (inactive) with SNB-75; 32.3 µM (inactive) with MDA-MB-435. Also, the GI50 with SK-MEL-2 was > 100 µM (inactive); in the assay with K562, 13.6 µM (inactive); with SNB-19 it was > 100 µM (inactive); with OVCAR-3, > 100 µM (inactive); with OVCAR-4, 50.9 µM (inactive); with HL-60 it was 56.1 µM (inactive). For the same compound, the GI50 is > 100 µM (inactive) with NCI-H226 and 31 µM (inactive) in the assay on SW-620.

Take `CO[C@@H]1C[C@H](OC(N)=O)[C@@H]2C=C[C@@H]3/C=C(C)/C=C/[C@@H](C)[C@H](/C(C)=C/[C@@H](C)NC(C)=O)OC(=O)/C=C/C=C(C)\C=C\[C@]3(C)[C@@H]2C1` [SUPERSTOLIDE B]: the GI50 in the assay with SF-268 was 0.0724 µM (active); in the assay on Malme-3M, < 0.005 µM (active); with ACHN, < 0.005 µM (active); in the assay with RXF 393, < 0.005 µM (active); with MDA-MB-231, < 0.005 µM (active); with HCT-15 it was 0.00518 µM. Moreover, the GI50 in the assay with COLO 205, with UACC-62, with NCI-H23, with LOX IMVI, in the assay with SNB-75 and with MDA-MB-435 was < 0.005 µM (active) throughout. In addition, the GI50 was 0.319 µM (active) in the assay on SK-MEL-2; < 0.005 µM (active) in the assay with K562; 0.0306 µM (active) in the assay with SNB-19; < 0.005 µM (active) in the assay on OVCAR-3; < 0.005 µM (active) in the assay on OVCAR-4; < 0.005 µM (active) in the assay on HL-60. Moreover, the GI50 with NCI-H226 and with SW-620 was < 0.005 µM (active) in each case.

For the compound `C=C1CC2(C[C@@H](c3ccccc3)O[C@@H](c3ccccc3)C2)OC1=O` (some centres undefined), the GI50 was 7.31 µM (inactive) with SF-268; 1.89 µM (inactive) with Malme-3M; 2.88 µM (inactive) with ACHN; 1.94 µM (inactive) in the assay on RXF 393; 2.15 µM (inactive) with MDA-MB-231; 2.54 µM in the assay with HCT-15. Further, the GI50 was 2.03 µM (inactive) in the assay on COLO 205; 2.51 µM (inactive) in the assay on UACC-62; 2.64 µM (inactive) in the assay on NCI-H23; 1.25 µM (inactive) in the assay with LOX IMVI; 4.65 µM (inactive) in the assay with SNB-75; 2.99 µM (inactive) in the assay with MDA-MB-435. For the same compound, the GI50 was 3.98 µM (inactive) in the assay on SK-MEL-2; 2.22 µM (inactive) in the assay with K562; 15.2 µM (inactive) in the assay with SNB-19; 2.36 µM (inactive) in the assay with OVCAR-3; 5.7 µM (inactive) with OVCAR-4; 0.44 µM (active) in the assay on HL-60. The figures for the GI50 in the assay with NCI-H226 and with SW-620 were 16 µM (inactive) and 1.67 µM (inactive), respectively.

Regarding `Clc1ccc(C(c2ccc(Cl)cc2)N2CCNCC2)cc1`, the GI50 in the assay with SF-268 was 4.95 µM (inactive); with Malme-3M, 1.58 µM (inactive); with ACHN, 2.16 µM (inactive); in the assay on RXF 393, 4.22 µM (inactive); in the assay on MDA-MB-231, 2.09 µM (inactive); with HCT-15, 2.58 µM. Also, the GI50 in the assay on COLO 205 is 1.96 µM (inactive); in the assay with UACC-62, 1.77 µM (inactive); in the assay on NCI-H23, 5.24 µM (inactive); in the assay on LOX IMVI, 1.92 µM (inactive); with SNB-75 it was 2.34 µM (inactive); in the assay on MDA-MB-435, 1.93 µM (inactive). The GI50 in the assay with SK-MEL-2 is 1.85 µM (inactive); with K562, 1.58 µM (inactive); with SNB-19, 5.13 µM (inactive); in the assay on OVCAR-3 it was 1.9 µM (inactive); in the assay with OVCAR-4, 2.48 µM (inactive); in the assay on HL-60, 1.86 µM (inactive). For the same compound, in the assay with SW-620, the GI50 was 2.22 µM (inactive).

`CC1OC(OC2C(O[C@H]3CC[C@@]4(C)C(=CC[C@H]5[C@@H]6C[C@@H]7O[C@]8(CC[C@@H](CO)CO8)[C@@H](C)[C@@H]7[C@@]6(C)CC[C@@H]54)C3)OC(CO)C(O)C2OC2OC(CO)C(O)C(O)C2O)C(O)C(O)C1O` (some centres undefined): the GI50 with SF-268 was 1.85 µM (inactive); with Malme-3M, 1.81 µM (inactive); in the assay with ACHN it was 1.73 µM (inactive); in the assay on RXF 393, 1.53 µM (inactive); with MDA-MB-231 it was 1.79 µM (inactive); with HCT-15, 1.91 µM. Further, the GI50 in the assay on COLO 205 is 1.88 µM (inactive); in the assay on UACC-62 it was 1.83 µM (inactive); with NCI-H23, 2.01 µM (inactive); in the assay on LOX IMVI, 1.85 µM (inactive); in the assay with SNB-75, 1.58 µM (inactive); in the assay on MDA-MB-435 it was 2.01 µM (inactive). The GI50 in the assay with SK-MEL-2 was 2.03 µM (inactive); in the assay on K562, 1.71 µM (inactive); in the assay on SNB-19, 2.02 µM (inactive); with OVCAR-4 it was 1.91 µM (inactive); with HL-60 it was 1.44 µM (inactive); with NCI-H226, 1.97 µM (inactive). In addition, the GI50 with SW-620 is 1.86 µM (inactive).
